One series deals with Caco-2 cells. The experiment in a line: Absorption in a Caco-2 cells model. The format is in vitro ADME. Here is the method:
(§1) The absorption of the compounds of formula (I) was tested in a Caco-2 cells model (Gastroenterology 1989, 96, 736).

Series [1] is described as follows: Absorption in a Caco-2 cells model. The class given is in vitro ADME. As to conditions: human, read-out: Apparent partition coefficient, Papp. Here is the method:
as §1

With `O=C(O)CNC(=O)COc1ccc(C2C(SCC(O)c3ccc(F)cc3)C(=O)N2c2ccccc2)cc1` [Example 24, 3-(R)-4-(R)-1-(Phenyl)-3-[2-(4-fluorophenyl)-2-hydroxyethylsulphany[-4-{4-[N-(carboxymethyl)carbamoylmethoxy]phenyl}azetidin-2-one], the “Apparent partition coefficient; Papp [cm/s]” value with Caco-2 cells is 0.24 × 10^−06 cm/s. The “absorption compared with ezetimibe” value in the series on Caco-2 cells (compared with ezetimibe) was “much lower absorption”.

The term Papp denotes a coefficient for how fast a substance crosses the barrier. As for `O=C1[C@H](CC[C@H](O)c2ccc(F)cc2)[C@@H](c2ccc(O)cc2)N1c1ccc(F)cc1` [Ezetimibe, reference compound], in series [1], the Papp stood at 21 ×10⁻⁶ cm/s.

Values taken from patent US7470678B2, “Diphenylazetidinone derivatives for treating disorders of the lipid metabolism” (AstraZeneca AB, priority 2002, dated 2008).
